{"source": "the supplement of paper PMC10307832", "assay_in_all_cases": "relative viability (nuclei count vs DMSO), 5 days (fraction); higher = more cells survive", "key": {"BEN": {"tested_on": "BEN", "in_short": "(§1)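 Medians of duplicate plates are given as relative viability. That measure is the nuclei count in treated wells divided by the count in vehicle wells. Counts were taken on 4× images of lung cancer cell lines in 1536-well plates, 5 days after pin-tool dosing the day after seeding with one drug alone or a fixed anchor-drug dose plus five library-drug doses (not always all listed) in √10 steps.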"}, "CAL-12T": {"tested_on": "CAL-12T", "in_short": "as §1"}, "EKVX": {"tested_on": "EKVX", "in_short": "as §1"}, "HCC-366": {"tested_on": "HCC-366", "in_short": "as §1"}, "HCC-44": {"tested_on": "HCC-44", "in_short": "as §1"}, "LOU-NH91": {"tested_on": "LOU-NH91", "in_short": "as §1"}, "LU99A": {"tested_on": "LU99A", "in_short": "as §1"}, "NCI-H1355": {"tested_on": "NCI-H1355", "in_short": "as §1"}, "NCI-H1395": {"tested_on": "NCI-H1395", "in_short": "as §1"}, "NCI-H1437": {"tested_on": "NCI-H1437", "in_short": "as §1"}, "NCI-H1563": {"tested_on": "NCI-H1563", "in_short": "as §1"}, "NCI-H1650": {"tested_on": "NCI-H1650", "in_short": "as §1"}, "NCI-H1651": {"tested_on": "NCI-H1651", "in_short": "as §1"}, "NCI-H1734": {"tested_on": "NCI-H1734", "in_short": "as §1"}, "NCI-H1755": {"tested_on": "NCI-H1755", "in_short": "as §1"}, "NCI-H1975": {"tested_on": "NCI-H1975", "in_short": "as §1"}, "NCI-H2023": {"tested_on": "NCI-H2023", "in_short": "as §1"}, "NCI-H2085": {"tested_on": "NCI-H2085", "in_short": "as §1"}, "NCI-H2342": {"tested_on": "NCI-H2342", "in_short": "as §1"}, "NCI-H358": {"tested_on": "NCI-H358", "in_short": "as §1"}, "NCI-H441": {"tested_on": "NCI-H441", "in_short": "as §1"}, "NCI-H460": {"tested_on": "NCI-H460", "in_short": "as §1"}, "NCI-H838": {"tested_on": "NCI-H838", "in_short": "as §1"}}}
{"smiles": "O=C(O)c1ccc(-c2c[nH]c3ncc(-c4ccccc4)cc23)cc1C1CCCC1", "note": "+ COc1cccc2cc(-c3nc([C@H]4CC[C@H](C(=O)O)CC4)n4ncnc(N)c34)[nH]c12 [OSI-027] (partner 0.5 µM)", "values": [{"measurement": "relative viability", "setting": "BEN; first compound 0.04 µM", "value": 0.329}, {"measurement": "relative viability", "setting": "BEN; first compound 0.1265 µM", "value": 0.269}, {"measurement": "relative viability", "setting": "BEN; first compound 0.4 µM", "value": 0.307}, {"measurement": "relative viability", "setting": "BEN; first compound 1.265 µM", "value": 0.284}, {"measurement": "relative viability", "setting": "CAL-12T; first compound 0.04 µM", "value": 0.63}, {"measurement": "relative viability", "setting": "CAL-12T; first compound 0.1265 µM", "value": 0.751}, {"measurement": "relative viability", "setting": "CAL-12T; first compound 0.4 µM", "value": 0.671}, {"measurement": "relative viability", "setting": "CAL-12T; first compound 1.265 µM", "value": 0.547}, {"measurement": "relative viability", "setting": "EKVX; first compound 0.04 µM", "value": 0.736}, {"measurement": "relative viability", "setting": "EKVX; first compound 0.1265 µM", "value": 0.828}, {"measurement": "relative viability", "setting": "EKVX; first compound 0.4 µM", "value": 0.727}, {"measurement": "relative viability", "setting": "EKVX; first compound 1.265 µM", "value": 0.587}, {"measurement": "relative viability", "setting": "HCC-366; first compound 0.04 µM", "value": 1.17}, {"measurement": "relative viability", "setting": "HCC-366; first compound 0.1265 µM", "value": 0.849}, {"measurement": "relative viability", "setting": "HCC-366; first compound 0.4 µM", "value": 0.966}, {"measurement": "relative viability", "setting": "HCC-366; first compound 1.265 µM", "value": 0.994}, {"measurement": "relative viability", "setting": "HCC-44; first compound 0.04 µM", "value": 0.512}, {"measurement": "relative viability", "setting": "HCC-44; first compound 0.1265 µM", "value": 0.505}, {"measurement": "relative viability", "setting": "HCC-44; first compound 0.4 µM", "value": 0.594}, {"measurement": "relative viability", "setting": "HCC-44; first compound 1.265 µM", "value": 0.484}, {"measurement": "relative viability", "setting": "LOU-NH91; first compound 0.04 µM", "value": 0.743}, {"measurement": "relative viability", "setting": "LOU-NH91; first compound 0.1265 µM", "value": 0.824}, {"measurement": "relative viability", "setting": "LOU-NH91; first compound 0.4 µM", "value": 0.733}, {"measurement": "relative viability", "setting": "LOU-NH91; first compound 1.265 µM", "value": 0.73}, {"measurement": "relative viability", "setting": "LU99A; first compound 0.04 µM", "value": 0.314}, {"measurement": "relative viability", "setting": "LU99A; first compound 0.1265 µM", "value": 0.309}, {"measurement": "relative viability", "setting": "LU99A; first compound 0.4 µM", "value": 0.364}, {"measurement": "relative viability", "setting": "LU99A; first compound 1.265 µM", "value": 0.3}, {"measurement": "relative viability", "setting": "NCI-H1355; first compound 0.04 µM", "value": 0.43}, {"measurement": "relative viability", "setting": "NCI-H1355; first compound 0.1265 µM", "value": 0.47}, {"measurement": "relative viability", "setting": "NCI-H1355; first compound 0.4 µM", "value": 0.371}, {"measurement": "relative viability", "setting": "NCI-H1355; first compound 1.265 µM", "value": 0.379}, {"measurement": "relative viability", "setting": "NCI-H1395; first compound 0.04 µM", "value": 0.627}, {"measurement": "relative viability", "setting": "NCI-H1395; first compound 0.1265 µM", "value": 0.773}, {"measurement": "relative viability", "setting": "NCI-H1395; first compound 0.4 µM", "value": 0.516}, {"measurement": "relative viability", "setting": "NCI-H1395; first compound 1.265 µM", "value": 0.537}, {"measurement": "relative viability", "setting": "NCI-H1437; first compound 0.04 µM", "value": 0.898}, {"measurement": "relative viability", "setting": "NCI-H1437; first compound 0.1265 µM", "value": 0.926}, {"measurement": "relative viability", "setting": "NCI-H1437; first compound 0.4 µM", "value": 1.01}, {"measurement": "relative viability", "setting": "NCI-H1437; first compound 1.265 µM", "value": 0.565}, {"measurement": "relative viability", "setting": "NCI-H1563; first compound 0.04 µM", "value": 0.72}, {"measurement": "relative viability", "setting": "NCI-H1563; first compound 0.1265 µM", "value": 0.753}, {"measurement": "relative viability", "setting": "NCI-H1563; first compound 0.4 µM", "value": 0.783}, {"measurement": "relative viability", "setting": "NCI-H1563; first compound 1.265 µM", "value": 0.798}, {"measurement": "relative viability", "setting": "NCI-H1650; first compound 0.04 µM", "value": 0.544}, {"measurement": "relative viability", "setting": "NCI-H1650; first compound 0.1265 µM", "value": 0.624}, {"measurement": "relative viability", "setting": "NCI-H1650; first compound 0.4 µM", "value": 0.624}, {"measurement": "relative viability", "setting": "NCI-H1650; first compound 1.265 µM", "value": 0.394}, {"measurement": "relative viability", "setting": "NCI-H1651; first compound 0.04 µM", "value": 0.659}, {"measurement": "relative viability", "setting": "NCI-H1651; first compound 0.1265 µM", "value": 0.715}, {"measurement": "relative viability", "setting": "NCI-H1651; first compound 0.4 µM", "value": 0.67}, {"measurement": "relative viability", "setting": "NCI-H1651; first compound 1.265 µM", "value": 0.583}, {"measurement": "relative viability", "setting": "NCI-H1734; first compound 0.04 µM", "value": 0.621}, {"measurement": "relative viability", "setting": "NCI-H1734; first compound 0.1265 µM", "value": 0.701}, {"measurement": "relative viability", "setting": "NCI-H1734; first compound 0.4 µM", "value": 0.549}, {"measurement": "relative viability", "setting": "NCI-H1734; first compound 1.265 µM", "value": 0.512}, {"measurement": "relative viability", "setting": "NCI-H1755; first compound 0.04 µM", "value": 0.748}, {"measurement": "relative viability", "setting": "NCI-H1755; first compound 0.1265 µM", "value": 0.814}, {"measurement": "relative viability", "setting": "NCI-H1755; first compound 0.4 µM", "value": 0.724}, {"measurement": "relative viability", "setting": "NCI-H1755; first compound 1.265 µM", "value": 0.673}, {"measurement": "relative viability", "setting": "NCI-H1975; first compound 0.04 µM", "value": 0.7}, {"measurement": "relative viability", "setting": "NCI-H1975; first compound 0.1265 µM", "value": 0.871}, {"measurement": "relative viability", "setting": "NCI-H1975; first compound 0.4 µM", "value": 0.648}, {"measurement": "relative viability", "setting": "NCI-H1975; first compound 1.265 µM", "value": 0.629}, {"measurement": "relative viability", "setting": "NCI-H2023; first compound 0.04 µM", "value": 0.516}, {"measurement": "relative viability", "setting": "NCI-H2023; first compound 0.1265 µM", "value": 0.572}, {"measurement": "relative viability", "setting": "NCI-H2023; first compound 0.4 µM", "value": 0.41}, {"measurement": "relative viability", "setting": "NCI-H2023; first compound 1.265 µM", "value": 0.319}, {"measurement": "relative viability", "setting": "NCI-H2085; first compound 0.04 µM", "value": 0.867}, {"measurement": "relative viability", "setting": "NCI-H2085; first compound 0.1265 µM", "value": 0.761}, {"measurement": "relative viability", "setting": "NCI-H2085; first compound 0.4 µM", "value": 0.73}, {"measurement": "relative viability", "setting": "NCI-H2085; first compound 1.265 µM", "value": 0.554}, {"measurement": "relative viability", "setting": "NCI-H2342; first compound 0.04 µM", "value": 0.489}, {"measurement": "relative viability", "setting": "NCI-H2342; first compound 0.1265 µM", "value": 0.744}, {"measurement": "relative viability", "setting": "NCI-H2342; first compound 0.4 µM", "value": 0.748}, {"measurement": "relative viability", "setting": "NCI-H2342; first compound 1.265 µM", "value": 0.646}, {"measurement": "relative viability", "setting": "NCI-H358; first compound 0.04 µM", "value": 0.807}, {"measurement": "relative viability", "setting": "NCI-H358; first compound 0.1265 µM", "value": 0.933}, {"measurement": "relative viability", "setting": "NCI-H358; first compound 0.4 µM", "value": 0.727}, {"measurement": "relative viability", "setting": "NCI-H358; first compound 1.265 µM", "value": 0.359}, {"measurement": "relative viability", "setting": "NCI-H441; first compound 0.04 µM", "value": 0.675}, {"measurement": "relative viability", "setting": "NCI-H441; first compound 0.1265 µM", "value": 0.567}, {"measurement": "relative viability", "setting": "NCI-H441; first compound 0.4 µM", "value": 0.571}, {"measurement": "relative viability", "setting": "NCI-H441; first compound 1.265 µM", "value": 0.466}, {"measurement": "relative viability", "setting": "NCI-H460; first compound 0.04 µM", "value": 0.645}, {"measurement": "relative viability", "setting": "NCI-H460; first compound 0.1265 µM", "value": 0.75}, {"measurement": "relative viability", "setting": "NCI-H460; first compound 0.4 µM", "value": 0.683}, {"measurement": "relative viability", "setting": "NCI-H460; first compound 1.265 µM", "value": 0.511}, {"measurement": "relative viability", "setting": "NCI-H838; first compound 0.04 µM", "value": 0.322}, {"measurement": "relative viability", "setting": "NCI-H838; first compound 0.1265 µM", "value": 0.452}, {"measurement": "relative viability", "setting": "NCI-H838; first compound 0.4 µM", "value": 0.4}, {"measurement": "relative viability", "setting": "NCI-H838; first compound 1.265 µM", "value": 0.358}]}
